Experimental data reported in BindingDB's records for doi:10.1016/S0960-894X(00)80683-6 (1993).

Key:
[1] = biological target: Gastrin/cholecystokinin type B receptor (Cavia porcellus); test: Ability to inhibit the binding of [125I]-gastrin to gastric glands in guinea pig.
[2] = biological target: Gastrin/cholecystokinin type B receptor (Cavia porcellus); test: Ability to inhibit the binding of [125I]CCK-8 to Cholecystokinin type B receptor in guinea pig cortex.
[3] = biological target: Gastrin/cholecystokinin type B receptor (Cavia porcellus); test: as above; remark: listed apart in the source

Which results are given for `CN1CCN(C(=O)CN2C(=O)C(NC(=O)Nc3ccc(Cl)cc3)N=C(c3ccccc3)c3ccccc32)CC1` (configuration not stated) [1-(4-Chloro-phenyl)-3-{1-[2-(4-methyl-piperazin-1-yl)-2-oxo-ethyl]-2-oxo-5-phenyl-2,3-dihydro-1H-benzo[e][1,4]diazepin-3-yl}-urea]?
IC50 [1]: 2.6 nM; IC50 [2]: 8 nM

Which results are given for `O=C(Nc1cccc2ccccc12)NC1CCc2ccccc2N(CC(=O)N2CCCC2)C1=O` (configuration not stated) [1-Naphthalen-1-yl-3-[2-oxo-1-(2-oxo-2-pyrrolidin-1-yl-ethyl)-2,3,4,5-tetrahydro-1H-benzo[b]azepin-3-yl]-urea]?
IC50 [1]: 460 nM; IC50 [2]: 650 nM

Which results are given for `Cc1cccc(NC(=O)NC2CCc3ccccc3N(CC(=O)N3CCN(C)CC3)C2=O)c1` (configuration not stated) [1-{1-[2-(4-Methyl-piperazin-1-yl)-2-oxo-ethyl]-2-oxo-2,3,4,5-tetrahydro-1H-benzo[b]azepin-3-yl}-3-m-tolyl-urea]?
IC50 [1]: 610 nM; IC50 [3]: 5000 nM

How did the IC50 [1] turn out when `CC(C)(C)OC(=O)CN1C(=O)C(NC(=O)Nc2cccc3ccccc23)CCc2ccccc21` (configuration not stated) [[3-(3-Naphthalen-1-yl-ureido)-2-oxo-2,3,4,5-tetrahydro-benzo[b]azepin-1-yl]-acetic acid tert-butyl ester] was run?
The IC50 was 480 nM.

And the IC50 [3]?
Its IC50 is 150 nM.

What does the source list for `COc1cccc(NC(=O)NC2CCc3ccccc3N(CC(=O)O)C2=O)c1` (configuration not stated) [{3-[3-(3-Methoxy-phenyl)-ureido]-2-oxo-2,3,4,5-tetrahydro-benzo[b]azepin-1-yl}-acetic acid]?
IC50 [1]: 3100 nM; IC50 [2]: 8600 nM

`CC(C)(C)OC(=O)CN1C(=O)C(NC(=O)Nc2ccc(Cl)cc2)CCc2ccccc21` (configuration not stated) [{3-[3-(4-Chloro-phenyl)-ureido]-2-oxo-2,3,4,5-tetrahydro-benzo[b]azepin-1-yl}-acetic acid tert-butyl ester] was tested. Which IC50 [1] did it give?
Its IC50 is 120 nM.

And the IC50 [2]?
The IC50 was 180 nM.
